Laboratory results reported in patent US20250268889A1, “COMPOUNDS AND COMBINATIONS THEREOF FOR TREATING NEUROLOGICAL AND PSYCHIATRIC CONDITIONS” (priority 2022, published 2025).
Read-outs that look alike come from different tables or passages of the source.

Key:
[1] = test system: plasma protein; test: Plasma protein binding; details: metabolite
[2] = Pharmacokinetics of the subject combination (steady state); details: for AUC0-12 relative to that of bupropion / Cmax relative to peak level of bupropion: metabolite; for apparent elimination half-life: metabolites of bupropion; for changes in AUC and Cmax with dose (dose proportionality): steady state, co-administered with bupropion
[3] = test system: patients with treatment-resistant depression or MDD; details: cited from earlier work
[4] = Pharmacokinetics in moderate hepatic impairment vs matched healthy subjects; details: patients having moderate hepatic impairment (Group 2)
Excerpt: (§1) Data are GMRs and 90% CIs. References used are the matched healthy subjects for renal and hepatic impairment studies, and extensive or ultra-extensive CYP2D6 metabolizers respectively.

[5] = Solubility of the powder in water
[6] = Pharmacokinetics in moderate renal impairment vs matched controls
Excerpt: as §1

[7] = Effect of concomitant 20 mg paroxetine on dextromethorphan exposure (Example 6); details: tablet of Example 4 twice daily, vs without paroxetine
[8] = Effect of food on pharmacokinetics of the subject combination; details: subject combination administered with food
[9] = Pharmacokinetics in CYP2D6 poor metabolizers vs extensive metabolizers
Excerpt: Approximately 7% to 10% of Caucasians and 3% to 8% of African Americans lack the capacity to metabolize CYP2D6 substrates and are classified as poor metabolizers.
as §1

[10] = Co-administration of paroxetine and the subject combination in healthy volunteers (Example 3); details: 29 healthy volunteers; paroxetine co-administered with the subject combination
[11] = human, in vivo
[12] = after administration of the subject combination
[13] = 7 subjects with moderate (GFR 30-60 mL/min) renal impairment vs 6 matched controls
[14] = patients having moderate renal impairment

C[C@H](NC(C)(C)C)[C@@H](O)c1cccc(Cl)c1 [threohydroxybupropion]
extent of protein binding compared with bupropion [1]: about half that seen with bupropion | AUC0-12 relative to that of bupropion [2, 12]: about 7 times | Cmax relative to peak level of bupropion [2, 12]: about 5 times | apparent elimination half-life [2]: ~33 h

CC(NC(C)(C)C)C(O)c1cccc(Cl)c1 (centres unmarked) [erythrohydroxybupropion]
AUC0-12 relative to that of bupropion [2, 12]: about 1.2 times | Cmax relative to peak level of bupropion [2, 12]: approximately equal to | apparent elimination half-life [2]: ~44 h

CN[C@]1(c2ccccc2Cl)CCCCC1=O [esketamine, Esketamine]
Incidence of Sedation (MOAA/S score <5) ([3]; 56 mg + oral AD, patients <65 years with TRD, fixed-dose study): 50% | Incidence of Sedation (MOAA/S score <5) ([3]; 84 mg + oral AD, patients <65 years with TRD, fixed-dose study): 61% | Incidence of Sedation (MOAA/S score <5) ([3]; 28 to 84 mg + oral AD, patients ≥65 years with TRD, flexible-dose study): 49% | incidence of sedation (MOAA/S score <5) compared to placebo plus oral antidepressant ([3]; adults with MDD with acute suicidal ideation or behavior): higher incidence of sedation

CC(NC(C)(C)C)C(=O)c1cccc(Cl)c1.Cl (racemic) [bupropion, (±)-1-(3-chlorophenyl)-2-[(1,1-dimethylethyl)amino]-1-propanone hydrochloride]
AUC0-12 and Cmax compared with healthy patients [4]: not significantly different | solubility in water [5]: highly soluble | increase in AUC0-12 ([6]; human, in vivo): 1.80 fold | increase in Cmax ([6]; human, in vivo): 1.87 fold | increase of exposure ([6]; human, in vivo): approximately 2 fold | reduction of clearance ([6]; human, in vivo): 50% | median Tmax [2, 12]: about 2 hours

C[C@H]1NC(C)(C)CO[C@]1(O)c1cccc(Cl)c1 [hydroxybupropion]
AUC0-12 relative to that of bupropion [2, 12]: about 19 times | Cmax relative to peak level of bupropion [2, 12]: approximately 14 times | apparent elimination half-life [2]: approximately 35 hours

Br.COc1ccc2c(c1)[C@]13CCCC[C@@H]1[C@H](C2)N(C)CC3 [dextromethorphan, morphinan, 3-methoxy-17-methyl-, (9α, 13α, 14α), hydrobromide monohydrate]
AUC0-12 and Cmax compared with healthy patients [4]: not significantly different | increase of AUC0-12 with concomitant paroxetine [7]: 2.69 fold | increase of Cmax with concomitant paroxetine [7]: 2.38 fold | change of Cmax with food [8]: unchanged | decrease of AUC0-12 with food [8]: 14% | solubility in water [5]: sparingly soluble | increase of exposure [6, 13]: approximately 2 fold | reduction of clearance [6, 13]: 50% | increase in AUC0-12 [6, 14]: 2.21 fold | increase in Cmax [6, 14]: 2.10 fold | increase in AUC0-12 compared to extensive metabolizers ([9]; 3 poor metabolizers): ~3.4 fold | increase in Cmax compared to extensive metabolizers ([9]; 3 poor metabolizers): ~3 fold | steady state plasma concentrations compared to non-poor metabolizers ([9]; 12 poor metabolizers treated in efficacy trials): generally higher | increase of mean elimination half-life compared to dextromethorphan given without bupropion ([2]; following 8 days of administration of the subject combination in extensive metabolizers): approximately 3 fold | changes in AUC and Cmax with dose (dose proportionality) ([2]; varying doses of bupropion (75 to 150 mg)): less than dose-proportional | changes in AUC and Cmax with dose (dose proportionality) ([2]; varying doses of dextromethorphan (30 to 60 mg)): greater than dose-proportional | accumulation ratio at steady state based on AUC0-12 ([2]; subject combination): about 32 | accumulation ratio at steady state based on Cmax ([2]; subject combination): about 20 | increase of overall exposure by paroxetine [10]: 2.5 fold

Fc1ccc([C@@H]2CCNC[C@H]2COc2ccc3c(c2)OCO3)cc1 [paroxetine]
increase of overall exposure when co-administered with the subject combination [11]: 1.2 fold
